Columns and labels:
[1] = tested on: experimental model of ALS; conditions: prior art statement; cited from earlier work
[2] = tested on: mSOD1-transgenic (G93A) mice; test: Nissl-stained motor neurons in ventral horn of spinal cord in SOD-1 transgenic mice; type: in vivo, mouse; conditions: SOD-1 mutant male mice vs vehicle-treated mutant mice; BDS 10 mg/kg i.p., olesoxime 3 mg/kg s.c., 10 to 21 weeks of age, FIG. 9
Experimental: (§1) A transgenic mouse model of ALS, SOD1, was used to determine the effects of the combined treatment of a drug used in the treatment of ALS, olesoxime, with THC.
(§2) mSOD1-transgenic (G93A) and wild-type mice were subjected to genotyping to identify the presence of mutant SOD-1. These mice were used for chronic treatment (from 10 weeks of age up to the age of 21 weeks) with test article or vehicle.
(§3) All studies were conducted in male mice (n=6-8 subjects in each experimental group).
(§4) The treatment groups were as follows: THC-BDS (10 mg/kg; i.p.); CBD-BDS (10 mg/kg; i.p); olesoxime (3 mg/kg; s.c.); a combination of THC-BDS and olesoxime; and vehicle. A group of wild-type animals were also treated with vehicle.
(§5) Animals were euthanized at the end of the treatment period and their spinal cords collected for biochemical and histopathological analyses.
(§6) Data were assessed using one-way (immunostaining data) or two-way (rotarod data) ANOVA followed by an appropriate post-hoc test (Student Newman-Keuls for immunostaining data, and Bonferroni for behavioural data) significance was reported at p≤0.05. Data shown in the figures represent “p<0.01, ***p<0.001
The number of motor neurons in the ventral horn of the spinal cord was quantified using Nissl staining.

[3] = tested on: mSOD1-transgenic (G93A) mice; test: Rotarod performance in SOD-1 transgenic mice; type: in vivo, mouse; conditions: SOD-1 transgenic male mice, treated from 10 to 21 weeks of age; BDS 10 mg/kg i.p., olesoxime 3 mg/kg s.c., FIG. 7
Experimental: as §1, §2, §3, §4
(§7) Animals were recorded for neurological decline by testing rotarod performance during the whole treatment period. Animals were recorded for neurological decline (using a previously published ALS-related neurological scale; de Munck et al., 2013).
as §6

[4] = tested on: mSOD1-transgenic (G93A) mice; test: Neurological score in SOD-1 transgenic mice; type: in vivo, mouse; conditions: SOD-1 mutant male mice, treated from 10 to 21 weeks of age; BDS 10 mg/kg i.p., olesoxime 3 mg/kg s.c., FIG. 8
Experimental: as §1, §2, §3, §4, §7, §6

ALS patients = conditions: in some patients; cited from earlier work
TDP-43 transgenic mice [5] = test: Limb clasping in TDP-43 transgenic mice; type: in vivo, mouse; conditions: TDP-43 transgenic male mice, 10 mg/kg/day i.p., FIG. 5
Experimental: (§8) A transgenic mouse model of ALS, TDP-43, was used to determine the effects of the cannabinoids in treatment of symptoms of ALS.
(§9) The TDP-43 transgenic and wild-type mice were subjected to genotyping to identify the presence of mutant TDP-43 gene. These mice were used for a chronic i.p. treatment (from 60 days of age up to the age of 90 days) with cannabinoid or vehicle.
as §3
(§10) The neuroprotective effects of 2 different phytocannabinoids (CBDV and CBDA) were investigated. The cannabinoids were administered at a dose of 10 mg/kg/day.
(§11) Animals were recorded for neurological decline by testing rotarod performance and observing limb clasping during the whole treatment period. The weight of the animals was also recorded during the treatment period.
(§12) Data were assessed using one-way (immunostaining data) or two-way (rotarod data) ANOVA followed by an appropriate post-hoc test (Student Newman-Keuls for immunostaining data, and Bonferroni for behavioural data) significance was reported at p≤0.05. Data shown in the figures represent “p<0.01, ***p<0.001.

TDP-43 transgenic mice [6] = test: Weight gain in TDP-43 transgenic mice; type: in vivo, mouse; conditions: TDP-43 transgenic male mice, 10 mg/kg/day i.p., FIG. 6A/6B
Experimental: as §8, §9, §3, §10, §11
The weight gain of animals was also monitored, this is a variable which is frequently used to monitor disease progression in animal models of ALS.

TDP-43 transgenic mice [7] = test: GFAP immunostaining of spinal cord astrocytes in TDP-43 transgenic mice; type: in vivo, mouse; conditions: TDP-43 transgenic male mice, 10 mg/kg/day i.p. from 60 to 90 days of age, FIG. 2
Experimental: as §8, §9, §3, §10, §5, §12
The reduction of spinal motor neurons in TDP-43 transgenic mice was associated with an elevation in the number of astrocytes labelled with Glial fibrillary acidic protein (GFAP) immunostaining, in particular activated astrocytes identified by analysis of their morphological characteristics (e.g. increased cell shape and size, reduction in the length of processes).

TDP-43 transgenic mice [8] = test: Nissl-stained spinal motor neurons in TDP-43 transgenic mouse model of ALS; type: in vivo; conditions: TDP-43 transgenic male mice, 10 mg/kg/day i.p. from 60 to 90 days of age, vs vehicle (p<0.05), FIG. 1
Experimental: as §8, §9, §3, §10, §5, §12

TDP-43 transgenic mice [9] = test: lba-1 immunostaining of spinal cord microglial cells in TDP-43 transgenic mice; type: in vivo, mouse; conditions: TDP-43 transgenic male mice, 10 mg/kg/day i.p. from 60 to 90 days of age, FIG. 3
Experimental: as §8, §9, §3, §10, §5
Data were assessed using one-way (immunostaining data) or two-way (rotarod data) ANOVA followed by an appropriate post-hoc test (Student Newman-Keuls for immunostaining data, and Bonferroni for behavioural data) significance was reported at p≤0.05. […]
The number of microglial cells in the spinal cord was quantified using lba-1 immunostaining, and again differentiating resting and activated cells through the analysis of their morphological characteristics (e.g. cell shape and size, type of processes). […] This was also seen when the ratio between cell body area and cell process length was calculated.

TDP-43 transgenic mice [10] = test: Rotarod test in TDP-43 transgenic mice; type: in vivo, mouse; conditions: 10 mg/kg/day i.p.; for motor performance on rotarod compared to wild type: vs wild type
Experimental: as §8, §9, §3, §10, §11, §12
The rotarod test was utilised to quantify the muscle weakness characteristic of TDP-43 transgenic mice.

patients with ALS = conditions: 27 patients with ALS, 5 mg of THC twice daily; cited from earlier work

Compound: CCCCCc1cc(O)c2c(c1)OC(C)(C)[C@@H]1CCC(C)=C[C@@H]21 [THC, Tetrahydrocannabinol]
- neuroprotection in an experimental model of ALS [1]: neuroprotective

Compound: CC(C)CCC[C@@H](C)[C@H]1CC[C@H]2[C@@H]3CCC4=CC(=NO)CC[C@]4(C)[C@H]3CC[C@]12C [olesoxime]
- number of Nissl-stained motor neurons in the ventral horn of the spinal cord [2]: statistically significant
- rotarod performance (time spent on the rod) [3]: able to attenuate the effect
- elevated Neurological Score (neurological decline) [4]: non-significant trends towards a reduced score

Compound: Nc1nc2ccc(OC(F)(F)F)cc2s1 [riluzole]
- onset of ventilator-dependence or tracheostomy (ALS patients): delays

Compound: C=C(C)[C@@H]1CCC(C)=C[C@H]1c1c(O)cc(CCCCC)c(C(=O)O)c1O [CBDA, Cannabidiolic acid]
- increase in limb clasping (TDP-43 transgenic mice [5]): strongly and significantly attenuated
- marked weight loss (weight gain monitoring) (TDP-43 transgenic mice [6]): prevent
- ratio between cell body area and process length (GFAP-labelled astrocytes) (TDP-43 transgenic mice [7]): reduced
- total immunoreactivity for GFAP (TDP-43 transgenic mice [7]): reduced
- loss of Nissl-stained motor neurons in the spinal cord (TDP-43 transgenic mice [8]): almost completely recovered
- lba-1 immunostaining changes (cell bodies, cell processes, ratio), all parameters (TDP-43 transgenic mice [9]): reversed the changes
- performance on the rotarod compared to vehicle (TDP-43 transgenic mice [10]; TDP-43 mice at 12 weeks of age, vs vehicle): significantly superior performance
- motor performance on rotarod compared to wild type (TDP-43 transgenic mice [10]; TDP-43 mice at 12 weeks of age): significantly impaired
- rotarod performance (latency to fall) during disease progression (TDP-43 transgenic mice [10]; TDP-43 transgenic male mice, even at advanced stages of the disease, FIG. 4): attenuated the rotarod worsening

Compound: C=C(C)[C@@H]1CCC(C)=C[C@H]1c1c(O)cc(CCC)cc1O [CBDV, Cannabidivarin]
- marked weight loss (weight gain monitoring) (TDP-43 transgenic mice [6]): reduce
- ratio between cell body area and process length (GFAP-labelled astrocytes) (TDP-43 transgenic mice [7]): reduced
- total immunoreactivity for GFAP (TDP-43 transgenic mice [7]): reduced
- loss of Nissl-stained motor neurons in the spinal cord (TDP-43 transgenic mice [8]): almost completely recovered
- lba-1 immunostaining changes (cell bodies, cell processes, ratio), all parameters (TDP-43 transgenic mice [9]): reversed the changes
- motor performance on rotarod compared to wild type (TDP-43 transgenic mice [10]; TDP-43 mice at 12 weeks of age): significantly impaired

Compound: CCCCCc1cc(O)c2c(c1)OC(C)(C)[C@@H]1CCC(C)=C[C@@H]21 [dronabinol]
- effect on the cramps associated with ALS (patients with ALS): failed to have a significant effect

Compound: CCCCCc1cc(O)c2c(c1)OC(C)(C)c1ccc(C)cc1-2 [CBN, cannabinol, reference compound]
- neuroprotection in an experimental model of ALS [1]: neuroprotective
